Source: patent publication EP0503079A1, “PYRIDAZINONE-SUBSTITUTED ETHYNYLPHENYL DERIVATIVE AND REMEDY FOR CIRCULATORY ORGAN DISEASE CONTAINING THE SAME AS ACTIVE INGREDIENT” (KAKEN PHARMACEUTICAL CO., LTD., priority 1990, dated 1992)

What was measured:
[1] = system: Slc: ddy male mice; experiment: Acute toxicity; format: in vivo; details: oral administration, death rate after 7 days
Method: (§1) In each group, 6 Slc: ddy male mice weighing 25 to 29 g (6 weeks) were employed. Each compound was administered orally thereto and a value of acute toxicity was evaluated with death rate after 7 days.

[2] = system: Slc-ddy male mice; experiment: Activity on hypoxia induced in decapitation of mice (gasping time); format: in vivo; design: dose or concentration left out as unconfirmed; details: gasping time after decapitation, one hour after oral administration
Method: In each group, 3 Slc-ddy male mice (4 weeks) were employed. Each test compound was suspended or dissolved in a 0.5 % methyl cellulose solution. After the concentration was adjusted, the dose became […], the solution was administered orally. One hour after the administration, mice were decapitated and gasping time was measured.
(§2) Inhibition rate was calculated by the following formula. [formula]

[3] = system: Aortae abdominalis of male Wister rats; experiment: Anti-norepinephrine activity on rat abdominal aorta strip preparations (auto-Magnus apparatus); details: tension by norepinephrine (10⁻⁷M) regarded as 100
Method: Aortae abdominalis of male Wister rats (8-12 weeks) were delivered and cut in spiral-shape to be strip preparations. Each test compounds was disolved in DMSO. Then, the solution was diluted with distilled water and prepared to be desired concentration. Using an auto-Magnus apparatus, as to the vasoconstriction after adding norepinephrine, contractive forces were measured under the existence of the test compounds.

[4] = system: platelet aggregation; experiment: Inhibitory activity on platelet aggregation (turbidimetry); format: cell-based, New Zealand White male rabbits; details: for Inhibition rate (%) ADP aggregation: 0.6 µg/mℓ ADP; for Inhibition rate (%) PAF aggregation: 5 x 10⁻⁹M PAF; for Inhibition rate (%) Collagen aggregation: 2 µg/mℓ collagen
Method: Blood was exsanguinated from New Zealand White male rabbits weighing from 2.5 to 3.0 kg and subjected to the test. Each test compound was dissolved in ethanol and prepared to be 1 x 10⁻⁵, 1 x 10⁻⁶ or 1 x 10⁻⁷M respectively. Each aggregation response was measured by turbidimetry. Concentration of aggregating agent was 2 µg/mℓ of collagen, 0.6 µg/mℓ of adenosine 5'-diphosphate (ADP) or 5 x 10⁻⁹M of platelet aggregating factor (PAF).
as §2

[5] = system: Slc: ddy male mice; experiment: Activity on stress ulcers (restraint and water immersion); format: in vivo; details: length of ulcer in glandular stomach; 30 mg/kg orally; restrained and immersed in water of 23°C for 7 hours
Method: In each group, 5 Slc: ddy male mice (6 weeks) were employed. Each test compound was kneaded with Tween-80 followed by adding a 0.5 % solution of gum arabic to prepare 30 mg/10 mℓ solution (solution containing 1.5 % Tween-80 and 0.5 % gum arabic). Then, the preparation was administered orally in a rate of 30 mg/kg. After the administration, the mice were restrained and immersed in a water tank of 23°C for 7 hours. Then, length of the ulcer in the glandular stomach was measured by a stereoscopic microscope (x 10).

[6] = Acute toxicity; format: in vivo, mice; details: mouse, in vivo; oral administration, death rate after 7 days; read-out: LD₅₀
Method: as §1

| Compound | LD₅₀ [1] [mg/kg] | Inhibition rate (%) [2] [%] | Contractive force ([3]; compound 10⁻⁷ M) | Contractive force ([3]; compound 10⁻⁸ M) | Contractive force ([3]; compound 10⁻⁹ M) | Inhibition rate (%) ADP aggregation ([4]; compound 10⁻⁵ M) [%] | Inhibition rate (%) PAF aggregation ([4]; compound 10⁻⁵ M) [%] | Inhibition rate (%) ADP aggregation ([4]; compound 10⁻⁶ M) [%] | Inhibition rate (%) Collagen aggregation ([4]; compound 10⁻⁶ M) [%] | Inhibition rate (%) ADP aggregation ([4]; compound 10⁻⁷ M) [%] | Inhibition rate (%) Collagen aggregation ([4]; compound 10⁻⁷ M) [%] | Inhibition rate (%) [5] [%] | LD50 at 168 h [6] [mg/kg] |
| --- | --- | --- | --- | --- | --- | --- | --- | --- | --- | --- | --- | --- | --- |
| 2,6-dimethyl-4-{3-(4-hydroxy-1-butyn-1-yl)}phenyl-3-methoxycarbonyl-5-{4-(6-oxo-1,4,5,6-tetrahydropyridazinon-3-yl)phenyl}aminocarbonyl-1,4-dihydropyridine [Compound 6] | 950 | 21.5 | 10.8 | 70.2 | 90.5 | 93 | 69 | 68 | 93 | 22 | 22 | – | – |
| C#Cc1cccc(C2C(C(=O)Nc3ccc(C4=NNC(=O)CC4)cc3)=C(C)NC(N)=C2C(=O)OCC)c1 (stereo not shown) [Compound 12, 2-amino-3-ethoxycarbonyl-4-(3-ethynylphenyl)-6-methyl-5-{4-(6-oxo-1,4,5,6-tetrahydropyridazinon-3-yl)phenyl)aminocarbonyl-1,4-dihydropyridine] | – | 30.2 | 10.3 | 69.4 | 90.2 | 96 | 72 | 81 | 96 | 35 | 33 | 98.7 | 1200 |
| CCOC(=O)C1=C(C)NC(C)=C(C(=O)Nc2ccc(C3=NNC(=O)CC3)cc2)C1c1cc(C#CC(C)(C)O)ccc1OC (stereo not shown) [Compound 17, 2,6-dimethyl-4-{3-(3-hydroxy-3-methyl)-1-butyn-1-yl-6-methoxy}phenyl-3-ethoxycarbonyl-5-{4-(6-oxo-1,4,5,6-tetrahydropyridazinon-3-yl)phenyl}aminocarbonyl-1,4-dihydropyridine] | – | 25.8 | 8.9 | 70.1 | 87.7 | 82 | 49 | 62 | 100 | 18 | 30 | 79.3 | 1000 |
| CCOC(=O)C1=C(N)NC(C)=C(C(=O)Nc2ccc(C3=NNC(=O)CC3)cc2)C1c1cccc(C#CC(C)(C)O)c1 (stereo not shown) [Compound 24, 2-amino-4-{3-(3-hydroxy-3-methyl)-1-butyn-1-yl}phenyl-3-ethoxycarbonyl-6-methyl-5-{4-(6-oxo-1,4,5,6-tetrahydropyridazinon-3-yl)phenyl}aminocarbonyl-1,4-dihydropyridine] | – | 24.2 | 11.1 | 72.4 | 88.8 | 92 | 60 | 70 | 90 | 27 | 29 | – | 1100 |
| C#Cc1cccc(C2C(C(=O)Nc3ccc(C4=NNC(=O)CC4CC)cc3)=C(C)NC(N)=C2C(=O)OCCOC)c1 (stereo not shown) [Compound 25, 2-amino-4-(3-ethynylphenyl)-3-methoxyethoxycarbonyl-6-methyl-5-{4-(4-ethyl-6-oxo-1,4,5,6-tetrahydropyridazinon-3-yl)phenyl}aminocarbonyl-1,4-dihydropyridine] | – | 28.3 | 12.1 | 70.9 | 91.5 | 90 | 62 | 69 | 91 | 29 | 30 | 94.3 | 1000 |
